Positions count from the first letter of the chain named. “Also recorded” adds a separate entry of the source.

Here are results for twelve molecules from patent publication US9686971B2, “Methods for testing anti-thrombotic agents” (The Trustees of Columbia University in the City of New York, priority 2006, dated 2017).

One data set addresses T1, GPIb alpha (Homo sapiens, UniProt P07359).
T1 construct: enables evaluation of GPIb alpha in its native form (i.e. correct orientation and proper post-translational modification); endogenous in cells; host or cells: human platelets purified by gel filtration, immobilized on Fab fragments of mAb 7E3
Put plainly: Transient tether kinetics of VWF-A1 coated microspheres on surface-immobilized human platelets. In kind it is binding. The settings on record: VWF-A1 coated beads, wall shear stress 1 dyn cm^−2. Here is the method:
In flow assays involving protein-coated microspheres, human or murine platelets purified by gel filtration are incubated with 10 mM sodium azide (NaN3), 50 ng/ml prostaglandin E1, and 10 μm indomethacin (Sigma Immunochemicals, St. Louis, Mo.) to reduce the possibility of activation and potential alterations in expression and/or distribution of GPIb alpha on their surface. Platelets are subsequently allowed to settle in stasis on Fab fragments of monoclonal antibodies that recognize either human (i.e., mAb 7E3) or murine (i.e., mAb NAD-1) alpha IIb/β3 in order to form a reactive substrate. […] Platelet coverage of <10% will be bound in this manner can remain relatively unactivated for up to 30 min as evident by morphology on light microscopic examination (FIG. 7A) and lack of expression of P-selectin by fluorescence microscopy (FIG. 7B).
To reduce the possibility of multiple bond formation that would result in a prolongation in interaction times between the beads and immobilized platelets, the lowest site densities of VWF-A1 capable of supporting these brief interactions is used, a value we found to correspond to ˜30 molecules μm^2. […] The force acting on the tether bond was calculated from force balance equations as stated above and koff plotted as a function of these forces. […]

For data set [1] the following is noted: in vivo; cited from earlier work.
For the next data set, the system named is thrombus formation. The settings on record: mice; given the day before and 2 hours prior; cited from earlier work.
Data set [2] concerns human platelets. The data set is described as follows: Ex vivo platelet adhesion, human whole blood over immobilized plasma VWF or rVWF-A1, 1600 s^-1. It is filed as cell-based. The settings on record: for human platelet deposition as compared with same-species controls / human platelet accumulation on immobilized protein: human whole blood; for human platelet deposition as compared with same-species controls: 1600 s^-1, 4 min; for human platelet accumulation on immobilized protein: 1600 s^-1; for translocation velocities of human platelets: mean±s.e.m, n=4. On the procedure: (§1) Experiments were performed in a parallel-plate flow chamber as previously described (Offermanns, S. (2006) Circ. Res. 99, 1293-1304). For studies involving plasma VWF, a polyclonal anti-VWF antibody (Dako) was absorbed overnight (4° C.) to a six well tissue culture plate. Subsequently, the plate was washed and non-specific interactions blocked by the addition of TBS containing 3% BSA, pH 7.4 (1 h, 37° C.). Human or murine plasma obtained from heparinized whole blood was added and the plates placed at 37° C. for an additional 2 h. Generation, purification, and surface-immobilization of recombinant VWF-A1 proteins was performed as previously described (Doggett, T. A. et al. Biophys. J. 83, 194-205 (2002)). Both human and murine VWF-A1 constructs consist of amino acid residues 1238 to 1471, with a single intra-disulfide bond formed between residues 1272 and 1458 and were generated in bacteria. Citrated whole blood (150 μl) collected via cardiac puncture from anesthetized homozygous VWF^1326R>H or WT mice or from venopuncture from human volunteers was perfused over the immobilized substrates at a wall shear rate of 1600 s^−1 for 4 min, followed by washing with Tyrode's buffer under the identical flow conditions. The number of platelets attached per unit area (0.07 mm^2) and translocation velocities were determined by off-line analysis (Image-Pro Plus, Media Cybernetics). For GPIbα inhibition studies, the function-blocking mAb 6D1 (20 μg/ml) or mAb SZ2 (20 μg/ml; Beckman Coulter) was added to anticoagulated human blood for 30 min prior to use. Experiments were performed in triplicate on two separate days. An ELISA was used to ensure equivalent coating concentration of plasma and recombinant proteins (Denis, C. et al. (1998) Proc. Natl. Acad. Sci. USA 95, 9524-9529).

Data set [3] concerns human platelets. Particulars: cited from earlier work.
Data set [4] has as its system murine platelets. Put plainly: Ristocetin-induced platelet aggregation assay (RIPA), murine platelet rich plasma. In kind it is cell-based, mouse. Here is the method:
In a Ristocetin-induced platelet aggregation assays, platelet GPIb alpha binding to wild type human VWF or mouse VWF was analyzed in the absence or presence of ristocetin as described by Inbal, et al. (1993, Thromb. Haemost., 70:1058-1062). In this method, platelet rich plasma (PRP) is placed in a clear cuvette containing a stir bar and inserted into the aggregometer. Platelet aggregation is induced by the addition of ristocetin. […] In fact, only at concentrations of ≧2.5 mg/ml was there any evidence of murine platelet aggregation observed (˜30%, FIG. 10C).

In data set [5] the test system is murine platelets. Put plainly: Ex vivo platelet adhesion, murine whole blood over immobilized plasma VWF or rVWF-A1, 1600 s^-1. In kind it is cell-based, mouse. On the procedure:
as §1, with “For GPIbα inhibition studies, the function-blocking mAb 6D1 (20 μg/ml) or mAb SZ2 (20 μg/ml; Beckman Coulter) was added to anticoagulated human blood for 30 min prior to use. Experiments were performed in triplicate on two separate days. An ELISA was used to ensure equivalent coating concentration of plasma and recombinant proteins (Denis, C. et al. (1998) Proc. Natl. Acad. Sci. USA 95, 9524-9529).” left out

The subject of data set [6] is murine platelets. The data set is described as follows: In vitro parallel plate flow chamber platelet adhesion on recombinant VWF-A1, 800 s^-1, murine platelets. In kind it is cell-based, mouse. The settings on record: wall shear rate 800 s^-1. Here is the method:
(§2) The protein was subsequently used in a series of in vitro flow chamber assays to assess function. Washed human or murine platelets (5×10^7/ml) were infused through a parallel plate flow chamber containing glass cover slips coated with either human VWF-A1 or mouse VWF-A1 protein (100 μg/ml final concentration) at a shear rate of 800 s^−1. After 5 min of continuous flow, adherent platelets were quantified.
In the case of the latter, the murine A1 fragment was inserted into pET-11b (Stratagene) and purified as previously described (53).
Support for this hypothesis is provided by mutagenesis studies. By analyzing the data obtained from the crystal structure of the murine VWF-A1 domain, we have identified several residues that may participate in interactions with GPIb alpha (FIG. 15C). Residue 1326 was initially chosen for study and was mutated to the corresponding amino acid at the identical location in its human counterpart (from Arg to His). Subsequently, the ability of murine and human platelets to interact with this mutant protein substrate was evaluated at a wall shear rate of 800 s^−1. Incorporation of a histidine for arginine at position 1326 in murine VWF-A1 reduced murine platelet adhesion by ˜5-fold and increased translocation velocities of cells by ˜7-fold as compared to the WT mouse protein (FIGS. 13A, 13B, 16A, and 16B). […]

Data set [7] concerns human platelets. The data set is described as follows: In vitro parallel plate flow chamber platelet adhesion on recombinant VWF-A1, 800 s^-1, human platelets. In kind it is cell-based. Particulars: wall shear rate 800 s^-1. On the procedure:
as §2
Support for this hypothesis is provided by mutagenesis studies. By analyzing the data obtained from the crystal structure of the murine VWF-A1 domain, we have identified several residues that may participate in interactions with GPIb alpha (FIG. 15C). Residue 1326 was initially chosen for study and was mutated to the corresponding amino acid at the identical location in its human counterpart (from Arg to His). Subsequently, the ability of murine and human platelets to interact with this mutant protein substrate was evaluated at a wall shear rate of 800 s^−1. Incorporation of a histidine for arginine at position 1326 in murine VWF-A1 reduced murine platelet adhesion by ˜5-fold and increased translocation velocities of cells by ˜7-fold as compared to the WT mouse protein (FIGS. 13A, 13B, 16A, and 16B). […] These studies support the hypothesis that from a structural and functional standpoint, mouse and human VWF-A1 are very similar.

T1 sequence (P07359 17-652): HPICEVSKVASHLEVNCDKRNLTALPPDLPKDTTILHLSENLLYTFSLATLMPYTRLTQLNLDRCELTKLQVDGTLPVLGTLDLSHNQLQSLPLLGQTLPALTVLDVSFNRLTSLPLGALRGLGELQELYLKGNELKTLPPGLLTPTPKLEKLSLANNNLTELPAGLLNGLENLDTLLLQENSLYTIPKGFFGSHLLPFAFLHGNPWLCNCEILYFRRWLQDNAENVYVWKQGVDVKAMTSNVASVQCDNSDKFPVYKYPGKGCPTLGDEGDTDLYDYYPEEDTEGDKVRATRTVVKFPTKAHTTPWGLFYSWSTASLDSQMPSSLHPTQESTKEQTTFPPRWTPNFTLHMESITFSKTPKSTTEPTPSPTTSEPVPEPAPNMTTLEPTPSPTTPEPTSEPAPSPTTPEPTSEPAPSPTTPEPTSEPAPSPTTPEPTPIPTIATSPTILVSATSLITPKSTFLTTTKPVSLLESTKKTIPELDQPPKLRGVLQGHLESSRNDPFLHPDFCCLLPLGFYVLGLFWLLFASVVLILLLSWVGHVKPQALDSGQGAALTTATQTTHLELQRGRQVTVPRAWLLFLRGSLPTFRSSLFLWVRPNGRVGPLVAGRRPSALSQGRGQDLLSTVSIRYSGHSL

One may read the koff as the rate constant with which the complex falls apart. High values mean a short-lived complex, low ones a long-lived complex. In the case of “WT human VWF-A1: wild type recombinant human VWF-A1 domain”, the koff with GPIb alpha was determined as 6.5 s⁻¹.

As for `CCCCS(=O)(=O)N[C@@H](Cc1ccc(OCCCCC2CCNCC2)cc1)C(=O)O` [Tirofiban], the plasma half-life result in data set [1] was “approximately 2 hours”.

Regarding `COC(=O)[C@H](c1ccccc1Cl)N1CCc2sccc2C1` [clopidogrel], the “maximal effective dose to reduce thrombus size and delay its formation” value in the data set with thrombus formation is 50 mg/kg.

As for “murine plasma VWF: surface-bound wild type murine plasma VWF”, in the data set with human platelets [2], the “human platelet deposition as compared with same-species controls” value amounted to 10%.

For the molecule “murine plasma VWF^1326R>H: plasma VWF obtained from mice homozygous for VWF^1326R>H”, in the data set on human platelets [2], the “human platelet accumulation on immobilized protein” value (shortened to “human platelet accumulation”) was “comparable with its human counterpart” and the “translocation velocities of human platelets” value was 3.5±0.1 μm/sec.

With ristocetin, the “concentration known to cause agglutination of human platelets” value in the data set on human platelets [3] is ~1.0 mg/mL. Besides, the “effect on murine platelets at the concentration that agglutinates human platelets” value in the data set with murine platelets [4] (murine PRP, ristocetin ~1.0 mg/ml) is given as “no such effect; also recorded: had no effect”. In addition, the platelet aggregation in the data set on murine platelets [4] (murine PRP, ristocetin ≧2.5 mg/ml) is recorded as ~30%.

In the case of thrombin, the platelet aggregation in the data set on murine platelets [4] (incubation of murine PRP with thrombin) was > 90%.

Regarding “human plasma VWF: native human plasma VWF”, the “translocation velocities of human platelets” value with human platelets [2] is recorded as 3.2±0.1 μm/sec.

B1: murine rVWF-A1: recombinant A1 domain of murine VWF, residues 1238 to 1471 (protein)
chain: QEPGGLVAPPTDAPVSSTTPYVEDTPEPPLHNFYCSKLLDLVFLLDGSSMLSEAEFEVLKAFVVGMMERLHISQKRIRVAVVEYHDGSRAYLELKARKRPSELRRITSQIKYTGSQVASTSEVLKYTLFQIFGKIDRPEASHITLLLTASQEPPRMARNLVRYVQGLKKKKVIVIPVGIGPHASLKQIRLIEKQAPENKAFLLSGVDELEQRRDEIVSYLCDLAPEAPAPTQPP
modifications: left off: small tags and cut ends
For the molecule B1, the “human platelet deposition as compared with same-species controls” value with human platelets [2] is 25%.

B2: murine rVWF-A1 1370S>G: murine rVWF-A1 with human residue at position 1370, printed S>G (protein)
chain: B1 chain with G133S
modifications: left off: small tags and cut ends
notes: murine rVWF-A1 with human residue at position 1370, printed S>G
As to B2, the “human platelet accumulation” value with human platelets [2] is recorded as “failed to promote the interaction”.

B3: murine rVWF-A1 1330E>G: murine rVWF-A1 with human residue at position 1330 (E>G) (protein)
chain: B1 chain with E93G
modifications: left off: small tags and cut ends
B3: the “human platelet accumulation” value in the data set with human platelets [2] was “failed to promote the interaction”.

B4: murine VWF-A1 1326R>H: recombinant mouse VWF-A1 domain with HIS for ARG at residue 1326 (protein)
chain: EDTPEPPLHNFYCSKLLDLVFLLDGSSMLSEAEFEVLKAFVVGMMERLHISQKRIRVAVVEYHDGSHAYLELKARKRPSELRRITSQIKYTGSQVASTSEVLKYTLFQIFGKIDRPEASHITLLLTASQEPPRMARNLVRYVQGLKKKKVIVIPVGIGPHASLKQIRLIEKQAPENKAFLLSGVDELEQRRDEIVSYLCDLAPEAPAPTQPPQVAHVTVSP
On to B4, for which, in the data set on human platelets [2], the “human platelet accumulation” value was “comparable to its wild-type (WT) human counterpart”. Also, in the data set on murine platelets [5], the “reduction of mouse platelet adhesion” value is given as ~75%. Moreover, in the data set on murine platelets [6], the “increase of translocation velocities of murine platelets compared to WT mouse protein” value is ~7 fold and the “reduction of murine platelet adhesion compared to WT mouse protein” value is given as ~5 fold. In addition, in the data set on human platelets [7], the “human platelet interactions with the protein substrate” value is recorded as “comparable to that of WT human VWF-A1”.
